Test system: anti-EDDP antibody
Assay: Assay for EDDP analyte: homogeneous enzyme immunoassay with G6PDH-product of Step 14-SH-Step 14 conjugate, absorbance at 340 nm
Assay type: binding
Conditions: 1 min after enzyme conjugate addition, Tris buffer pH 7.8
Description: The experiments were conducted on an AGILENT® 8453 UV spectrophotometer (Agilent Technologies, Santa Clara Calif.). Typically, 2.5 mL Tris buffer (50 mM, containing 3.3 mM MgCl2, pH 7.8), 0.2 ml anti-EDDP antibody (1 mg/mL, commercially available from Lin Zhi International Inc. Sunnyvale Calif.), 0.1 mL glucose-6-phosphate (0.1 M), 0.1 mL NADP (0.006M) were taken in a quartz cuvette. To this, 0-4029 ng/mL EDDP in 10 μL methanol was added and mixed well. Then, 10 μL G6PDH-product of Step 14-SH-Step 14 (1 mg/mL) was added and mixed well. Increase in the absorbance at 340 nm was monitored at 1 min after the enzyme addition.

CC=C1N(C)C(C)CC1(c1ccccc1)c1ccccc1 (stereo not drawn) [EDDP, 2-ethylidene-1,5-dimethyl-3,3-diphenylpyrrolidine]
mAu 340 nm (increase in the absorbance at 340 nm) (EDDP 370 ng/mL): 456 mAu
mAu 340 nm (increase in the absorbance at 340 nm) (EDDP 1221 ng/mL): 497 mAu
mAu 340 nm (increase in the absorbance at 340 nm) (EDDP 4029 ng/mL): 561 mAu

From patent US9777069B2, “Compositions and methods for detection of methadone metabolite” (Siemens Healthcare Diagnostics Inc., priority 2012, dated 2017)
